In patent US11254663B2 (BRISTOL-MYERS SQUIBB COMPANY, priority 2019, dated 2022) one finds EC50 data, which are given here for 23 molecules.

The target of one assay is FXR (Homo sapiens (Human), UniProt Q96RI1). In words: transient human FXR/Gal4-luciferase reporter assay. The format is cell-based.
FXR, sequence (Q96RI1 262-486): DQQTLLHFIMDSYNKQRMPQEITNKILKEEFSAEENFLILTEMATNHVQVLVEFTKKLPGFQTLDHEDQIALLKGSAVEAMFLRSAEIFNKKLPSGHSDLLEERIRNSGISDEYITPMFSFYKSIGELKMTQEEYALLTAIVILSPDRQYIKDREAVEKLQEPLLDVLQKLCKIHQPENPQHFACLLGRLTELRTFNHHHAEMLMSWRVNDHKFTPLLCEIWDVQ
Settings: not given
Put shortly: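 Compound exposure ran overnight at 37 °C and activity was measured as luminescence with Steady-Glo reagent. The cells were a HEK293 line stably expressing firefly luciferase under five Gal4 response elements. They were transiently transfected, one night beforehand, with a plasmid encoding Gal4 DNA-binding domain fused to the human FXR ligand-binding domain.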
(In a reporter assay the amount or activity of a reporter protein is the signal.)
As to `CC(C)(O)c1ccc(-c2cccc(N(CC34CCC(c5noc(C(C)(C)F)n5)(CC3)CC4)C(=O)NCC3(S(C)(=O)=O)CC3)c2)cc1` [Example 642], the EC50 was determined as 294 nM. `CC(C)(O)c1ccc(-c2cccc(N(CC34CCC(c5noc(C(C)(C)F)n5)(CC3)CC4)C(=O)N3CC(O)(C(F)(F)F)C3)c2)cc1` [Example 643, N-((4-(5-(2-fluoropropan-2-yl)-1,2,4-oxadiazol-3-yl)bicyclo[2.2.2]octan-1-yl)methyl)-3-hydroxy-N-(4′-(2-hydroxypropan-2-yl)-[1,1′-biphenyl]-3-yl)-3-(trifluoromethyl)azetidine-1-carboxamide] displayed an EC50 of 235 nM.

Consider `CC(C)(O)c1ccc(-c2cccc(N(CC34CCC(c5noc(C(C)(C)F)n5)(CC3)CC4)C(=O)NC3CCS(=O)(=O)CC3)c2)cc1` [Example 644, 3-(1,1-dioxidotetrahydro-2H-thiopyran-4-yl)-1-((4-(5-(2-fluoropropan-2-yl)-1,2,4-oxadiazol-3-yl)bicyclo[2.2.2]octan-1-yl)methyl)-1-(4′-(2-hydroxypropan-2-yl)-[1,1′-biphenyl]-3-yl)urea], for which the 50% effective concentration (EC50) is 743 nM.

With `CC(C)(O)c1ccc(-c2cccc(N(CC34CCC(c5noc(C(C)(C)F)n5)(CC3)CC4)C(=O)N3CCN(CC(F)(F)F)CC3)c2)cc1` [Example 645], the EC50 was 229 nM. Still for that read-out and setting: under `CC(C)(O)c1ccc(-c2cccc(N(CC34CCC(c5noc(C(C)(C)F)n5)(CC3)CC4)C(=O)NCC(F)(F)CO)c2)cc1` [Example 646, 3-(2,2-difluoro-3-hydroxypropyl)-1-((4-(5-(2-fluoropropan-2-yl)-1,2,4-oxadiazol-3-yl)bicyclo[2.2.2]octan-1-yl)methyl)-1-(4′-(2-hydroxypropan-2-yl)-[1,1′-biphenyl]-3-yl)urea] stands 270 nM; under `CC(C)(O)c1ccc(-c2cccc(N(CC34CCC(c5noc(C(C)(C)F)n5)(CC3)CC4)C(=O)NCC3(CO)CCOCC3)c2)cc1` [Example 647, 1-((4-(5-(2-fluoropropan-2-yl)-1,2,4-oxadiazol-3-yl)bicyclo[2.2.2]octan-1-yl)methyl)-3-((4-(hydroxymethyl)tetrahydro-2H-pyran-4-yl)methyl)-1-(4′-(2-hydroxypropan-2-yl)-[1,1′-biphenyl]-3-yl)urea], 581 nM. With `CC(C)(O)c1ccc(-c2cccc(N(CC34CCC(c5noc(C(C)(C)F)n5)(CC3)CC4)C(=O)NCC3(O)CC3)c2)cc1` [Example 648, 1-((4-(5-(2-fluoropropan-2-yl)-1,2,4-oxadiazol-3-yl)bicyclo[2.2.2]octan-1-yl)methyl)-3-((1-hydroxycyclopropyl)methyl)-1-(4′-(2-hydroxypropan-2-yl)-[1,1′-biphenyl]-3-yl)urea], the EC50 was 509 nM. This EC50 and that of the molecule before are within 1.5-fold of each other.

In turn, `CC(C)(O)c1ccc(-c2cccc(N(CC34CCC(c5noc(C(C)(C)F)n5)(CC3)CC4)C(=O)NCCN3CCOCC3)c2)cc1` [Example 649, 1-((4-(5-(2-fluoropropan-2-yl)-1,2,4-oxadiazol-3-yl)bicyclo[2.2.2]octan-1-yl)methyl)-1-(4′-(2-hydroxypropan-2-yl)-[1,1′-biphenyl]-3-yl)-3-(2-morpholinoethyl)urea] yielded a half-maximal effective concentration (EC50) of 600 nM. `CC(C)(O)c1ccc(-c2cccc(N(CC34CCC(c5noc(C(C)(C)F)n5)(CC3)CC4)C(=O)NCCC3(O)CCCC3)c2)cc1` [Example 650, 1-((4-(5-(2-fluoropropan-2-yl)-1,2,4-oxadiazol-3-yl)bicyclo[2.2.2]octan-1-yl)methyl)-3-(2-(1-hydroxycyclopentyl)ethyl)-1-(4′-(2-hydroxypropan-2-yl)-[1,1′-biphenyl]-3-yl)urea] had an EC50 of 472 nM.

Still in this assay, the particulars now being: Gal4-hFXR fusion construct, HEK293 reporter cells; response relative to 8 μM GW-4064.
The molecule `CC(C)Oc1ccc(-c2ccnc(N(CC34CCC(c5ccc(C(C)(F)F)cn5)(CC3)CC4)C(=O)[C@H]3C[C@@](C)(OC(F)F)C3)c2)cc1` [Example 640, (cis)-N-((4-(5-(1,1-difluoroethyl)pyridin-2-yl)bicyclo[2.2.2]octan-1-yl)methyl)-3-(difluoromethoxy)-N-(4-(4-isopropoxyphenyl)pyridin-2-yl)-3-methylcyclobutane-1-carboxamide] returned an EC50 of 27 nM. The same measure, in the same setting: next, `CC(C)(O)c1ccc(-c2cccc(N(CC34CCC(c5noc(C(C)(C)F)n5)(CC3)CC4)C(=O)N3CC4(C3)CS(=O)(=O)C4)c2)cc1` [Example 641, N-((4-(5-(2-fluoropropan-2-yl)-1,2,4-oxadiazol-3-yl)bicyclo[2.2.2]octan-1-yl)methyl)-N-(4′-(2-hydroxypropan-2-yl)-[1,1′-biphenyl]-3-yl)-2-thia-6-azaspiro[3.3]heptane-6-carboxamide 2,2-dioxide]: 1300 nM; `CC(C)(C#N)Oc1ccc(-c2cccc(N(CC34CCC(c5noc(C(C)(C)F)n5)(CC3)CC4)C(=O)N3CCC(C(C)(C)O)CC3)c2)cc1` [Example 651, N-(4′-((2-cyanopropan-2-yl)oxy)-[1,1′-biphenyl]-3-yl)-N-((4-(5-(2-fluoropropan-2-yl)-1,2,4-oxadiazol-3-yl)bicyclo[2.2.2]octan-1-yl)methyl)-4-(2-hydroxypropan-2-yl)piperidine-1-carboxamide]: 273 nM. The same measure, in the same setting: next, `CC(C)Oc1ccc(-c2cccc(N(CC34CCC(c5noc(C(C)(F)F)n5)(CC3)CC4)C(=O)NC3CCOCC3)c2)cc1` [Example 652, 1-((4-(5-(1,1-difluoroethyl)-1,2,4-oxadiazol-3-yl)bicyclo[2.2.2]octan-1-yl)methyl)-1-(4′-isopropoxy-[1,1′-biphenyl]-3-yl)-3-(tetrahydro-2H-pyran-4-yl)urea]: 379 nM; `CC(C)Oc1ccc(-c2cc(N(CC34CCC(c5noc(C(C)(C)F)n5)(CC3)CC4)C(=O)N[C@H]3CC[C@](C)(OC(F)F)CC3)ccc2F)cc1` [Example 653, 3-((trans)-4-(difluoromethoxy)-4-methylcyclohexyl)-1-(6-fluoro-4′-isopropoxy-[1,1′-biphenyl]-3-yl)-1-((4-(5-(2-fluoropropan-2-yl)-1,2,4-oxadiazol-3-yl)bicyclo[2.2.2]octan-1-yl)methyl)urea]: 145 nM; `CC(C)(Oc1ccc(-c2cccc(N(CC34CCC(c5noc(C(C)(C)F)n5)(CC3)CC4)C(=O)[C@H]3C[C@](O)(C(F)(F)F)C3)c2)cc1)C(N)=O` [Example 654, (cis)-N-(4′-((1-amino-2-methyl-1-oxopropan-2-yl)oxy)-[1,1′-biphenyl]-3-yl)-N-((4-(5-(2-fluoropropan-2-yl)-1,2,4-oxadiazol-3-yl)bicyclo[2.2.2]octan-1-yl)methyl)-3-hydroxy-3-(trifluoromethyl)cyclobutane-1-carboxamide]: 169 nM. The molecule `CC(C)Oc1ccc(-c2cccc(N(CC34CCC(c5cc(C6(F)CC6)nn5C)(CC3)CC4)C(=O)OC(C)(C)C(F)(F)F)c2)cc1` [Example 655, 1,1,1-trifluoro-2-methylpropan-2-yl ((4-(3-(1-fluorocyclopropyl)-1-methyl-1H-pyrazol-5-yl)bicyclo[2.2.2]octan-1-yl)methyl)(4′-isopropoxy-[1,1′-biphenyl]-3-yl)carbamate] displayed an EC50 of 819 nM. The molecule `CC(C)Oc1ccc(-c2cccc(N(CC34CCC(c5cc(C(C)(F)F)on5)(CC3)CC4)C(=O)OC(C)(C)C(F)(F)F)c2)cc1` [Example 656, 1,1,1-trifluoro-2-methylpropan-2-yl ((4-(5-(1,1-difluoroethyl)isoxazol-3-yl)bicyclo[2.2.2]octan-1-yl)methyl)(4′-isopropoxy-[1,1′-biphenyl]-3-yl)carbamate] displayed a half-maximal effective concentration (EC50) of 1060 nM. Same read-out and setting: next, `CC(C)Oc1ccc(-c2ccnc(N(CC34CCC(c5cc(C(C)(F)F)nn5C)(CC3)CC4)C(=O)OC(C)(C)C(F)(F)F)c2)cc1` [Example 657, 1,1,1-trifluoro-2-methylpropan-2-yl ((4-(3-(1,1-difluoroethyl)-1-methyl-1H-pyrazol-5-yl)bicyclo[2.2.2]octan-1-yl)methyl)(4-(4-isopropoxyphenyl)pyridin-2-yl)carbamate]: 67 nM; `CC(C)Oc1ccc(-c2cccc(N(CC34CCC(c5cc(C(C)(F)F)n(C)n5)(CC3)CC4)C(=O)OC(C)(C)C(F)(F)F)c2)cc1` [Example 658, 1,1,1-trifluoro-2-methylpropan-2-yl ((4-(5-(1,1-difluoroethyl)-1-methyl-1H-pyrazol-3-yl)bicyclo[2.2.2]octan-1-yl)methyl)(4′-isopropoxy-[1,1′-biphenyl]-3-yl)carbamate]: 917 nM; `CC(C)Oc1ccc(-c2cccc(N(CC34CCC(c5cc(C(C)(F)F)nn5C)(CC3)CC4)C(=O)NC(C)(C)C)c2)cc1` [Example 659, 3-(tert-butyl)-1-((4-(3-(1,1-difluoroethyl)-1-methyl-1H-pyrazol-5-yl)bicyclo[2.2.2]octan-1-yl)methyl)-1-(4′-isopropoxy-[1,1′-biphenyl]-3-yl)urea]: 53 nM.

As to `CC(C)(C)NC(=O)N(CC12CCC(c3noc(C(C)(C)F)n3)(CC1)CC2)c1cc(-c2ccc(OC(F)F)cc2)cnn1` [Example 660], the EC50 is 2190 nM.

`CC(C)c1cc(C23CCC(CN(C(=O)OC(C)(C)C(F)(F)F)c4cc(-c5ccc(C(C)(C)O)cc5)ccn4)(CC2)CC3)n(C)n1` [Example 661, 1,1,1-trifluoro-2-methylpropan-2-yl (4-(4-(2-hydroxypropan-2-yl)phenyl)pyridin-2-yl)((4-(3-isopropyl-1-methyl-1H-pyrazol-5-yl)bicyclo[2.2.2]octan-1-yl)methyl)carbamate]: the EC50 came to 53 nM. The same measure, in the same setting: under `CC(C)(F)c1nc(C23CCC(CN(c4cccc(-c5ccc(-c6nonc6N)cc5)c4)C(=O)[C@H]4C[C@](O)(C(F)(F)F)C4)(CC2)CC3)no1` [Example 662, (cis)-N-(4′-(4-amino-1,2,5-oxadiazol-3-yl)-[1,1′-biphenyl]-3-yl)-N-((4-(5-(2-fluoropropan-2-yl)-1,2,4-oxadiazol-3-yl)bicyclo[2.2.2]octan-1-yl)methyl)-3-hydroxy-3-(trifluoromethyl)cyclobutane-1-carboxamide] stands 574 nM.

The term EC50 denotes the midpoint of the concentration-response curve. A low value points to a more potent agent.
